The assay addresses T1, apTKRPR-B (Aplysia californica, UniProt A0AAU7STS1).
T1 sequence (A0AAU7STS1 1-447): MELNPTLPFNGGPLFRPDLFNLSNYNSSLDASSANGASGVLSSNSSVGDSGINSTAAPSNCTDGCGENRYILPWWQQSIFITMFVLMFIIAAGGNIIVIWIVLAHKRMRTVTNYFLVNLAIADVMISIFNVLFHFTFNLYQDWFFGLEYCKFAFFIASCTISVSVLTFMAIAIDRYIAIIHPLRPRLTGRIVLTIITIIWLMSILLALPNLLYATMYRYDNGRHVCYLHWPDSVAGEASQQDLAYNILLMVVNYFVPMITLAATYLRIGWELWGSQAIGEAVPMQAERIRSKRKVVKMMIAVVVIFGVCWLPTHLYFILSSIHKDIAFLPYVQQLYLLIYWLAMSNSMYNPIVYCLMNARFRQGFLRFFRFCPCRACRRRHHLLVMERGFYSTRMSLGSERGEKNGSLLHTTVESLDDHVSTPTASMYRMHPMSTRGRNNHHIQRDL
The assay is described as follows: IP1 accumulation assay, CHO-K1 cells transiently expressing apTKRPR-B. Format: cell-based. On the procedure:
To express putative Aplysia receptors transiently in CHO-K1 cells, the cDNAs were subcloned into the pcDNA3.1(+) or pcDNA3.1(+)-FLAG (for ELISA experiments only, see “Cell surface expression analysis by ELISA” section) expression vector. On the day before transfection, the CHO-K1 cells were passaged into 60 mm diameter tissue culture–treated dishes, and the transfection experiments were performed when the cells were grown to 70 to 90% confluence. CHO-K1 cells were transfected with the cDNA plasmid constructs using Turbofect Transfection reagent (Thermo Fisher Scientific, R0531), following the manufacturer’s instructions. […] The DNA/TurboFect mixture dropwise was then added to the dish, and the cells were incubated at 37 °C in a humidified incubator containing 5% CO2 overnight.
On the third day, the activation of the putative receptors was detected by monitoring intracellular IP1 concentration using an IP-One Gq kit (Cisbio, 62IPAPEB) in Tecan Spark. Except for using 0.5x reagent, all other procedures were performed following the manufacturer’s instructions. IP1 accumulation assay measures the accumulation of IP1, which is hydrolyzed from the second messenger, and inositol triphosphate. Inositol triphosphate is generated by the Gαq pathway when a GPCR is activated by an appropriate ligand.

Non-standard residues stand in square brackets, D forms with d. Residues, ends and D or L forms follow the SMILES beside them. pGlu = O=C1CC[C@@H](C(=O)O)N1

`CC(C)C[C@H](NC(=O)[C@H](Cc1c[nH]cn1)NC(=O)[C@@H]1CCCN1C(=O)[C@@H]1CCC(=O)N1)C(=O)NCC(=O)N[C@@H](Cc1ccccc1)C(=O)N[C@@H](Cc1c[nH]cn1)C(=O)NCC(=O)N[C@@H](CO)C(=O)N[C@@H](CCCNC(=N)N)C(N)=O` [apTKRP-2b] ([pGlu]PHLGFHGSR-NH2) showed a 50% effective concentration (EC50) of 5.37 nM. The “IP1 response of apTKRPR-B in screening” value (10^-5 M compared with 10^-10 M (control), n = 3, no Gαq cotransfection) is “responded”.

The values are drawn from article PMC11365428 (The Journal of Biological Chemistry, 2024).
